How the values were obtained:
[1] = biological target: T1, 3-hydroxy-3-methylglutaryl-coenzyme A synthase 1 (HMGCS1) (Homo sapiens, UniProt Q01581); test: competitive affinity purification TMT mass spectrometry and immunoblot in HEK293T cells; type: cell-based; parameters: endogenous HMGCS1 in HEK293T cells
T1 sequence (Q01581 1-520): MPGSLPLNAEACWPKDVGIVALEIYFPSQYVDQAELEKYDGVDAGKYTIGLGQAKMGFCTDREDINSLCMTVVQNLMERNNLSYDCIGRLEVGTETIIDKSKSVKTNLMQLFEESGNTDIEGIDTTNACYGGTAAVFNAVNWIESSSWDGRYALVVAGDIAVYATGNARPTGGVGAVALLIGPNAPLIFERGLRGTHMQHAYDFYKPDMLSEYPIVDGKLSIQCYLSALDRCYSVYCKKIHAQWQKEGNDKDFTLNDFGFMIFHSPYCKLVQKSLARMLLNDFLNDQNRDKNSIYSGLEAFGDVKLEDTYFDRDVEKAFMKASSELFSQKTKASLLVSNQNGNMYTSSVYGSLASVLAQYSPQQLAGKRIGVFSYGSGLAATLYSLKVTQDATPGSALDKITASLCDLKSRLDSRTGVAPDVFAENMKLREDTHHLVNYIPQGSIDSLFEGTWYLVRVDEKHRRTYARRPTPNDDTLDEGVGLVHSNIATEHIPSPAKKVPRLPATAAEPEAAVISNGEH

[2] = biological target: T1, 3-hydroxy-3-methylglutaryl-coenzyme A synthase 1 (HMGCS1); test: Glu-C MS/MS of adduct on recombinant HMGCS1; dose-dependent competition with HG-FL in gel; competitive chemoproteomics in HEK293T; type: binding; parameters: recombinant HMGCS1 (pET60b-HMGCS1-TEV-6His)

Row | SMILES | competitive affinity purification TMT mass spectrometry and immunoblot in HEK293 [1] | Glu-C MS/MS of adduct on recombinant HMGCS1; dose-dependent competition with HG- [2]
1 | CC(=C\C(=O)NCCOCCOCCNC(=O)CCCC[C@@H]1SC[C@@H]2NC(=O)N[C@@H]21)/C=C(\C)C[C@H](C)CCCC[C@H]1OC(=O)[C@@H]1CO [HG-biotin, Hymeglusin-biotin] | An orthogonal immunoblotting assay confirmed the strong enrichment of HMGCS1 by HG-biotin in DMSO pre-treated cells | 
2 | CC(=C\C(=O)O)/C=C(\C)C[C@H](C)CCCC[C@H]1OC(=O)[C@@H]1CO [HG, Hymeglusin] |  | Mass spectrometry analysis of recombinant HMGCS1, after incubation with HG, further confirmed the modification of C129 by HG
